Activity calls are given as the source filed them.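 How the source made its calls: active means compounds lowering yeast growth whose fitted half-maximal concentration is at most twice the top tested dose; inconclusive means flat partial growth drop between 30 and 70 percent, or poor fit; inactive means the rest.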
Test system: S. cerevisiae growth in glucose medium, OD600, 48 h
Assay: yeast fermentative growth inhibition – glucose medium, OD600, dry powder, dose response (AID 602187)
Conditions: not given

Q: For `Oc1c(CN2CCc3ccccc3C2)cc(Cl)c2cccnc12`, which AC50 is on record?
A: The AC50 was 15.3 µM.

Q: Which AC50 does the source give for `C=CCNC(=S)N/N=C(\C)c1ccccn1` here?
A: Its AC50 is 6.93 µM.

Q: Which AC50 does the source give for `O=C(Nc1nc(-c2ccccn2)cs1)c1ccc(Cl)s1` here?
A: Its AC50 is 1.75 µM.

Q: Which AC50 does the source give for `O=C(Oc1c(Cl)cc(Cl)c2cccnc12)c1ccco1` here?
A: The AC50 was 0.346 µM.

Q: With `Cc1ccc(C(=O)Nc2nc(-c3ccccn3)cs2)cc1` as the molecule, how does the AC50 read?
A: Its AC50 is 6.06 µM.

Q: With `CN1CCN(C(c2ccc(C(F)(F)F)cc2)c2ccc3cccnc3c2O)CC1` (centres undefined) as the molecule, how does the AC50 read?
A: Its AC50 is 3.32 µM.

Q: Which AC50 does the source give for `Oc1c(C(c2ccccc2Cl)N2CCCCC2)ccc2cccnc12` (centres undefined) here?
A: The AC50 was 16.3 µM.

Q: With `CCCC(=O)NC(c1cccs1)c1cc(Cl)c2cccnc2c1O` (centres undefined) as the molecule, how does the AC50 read?
A: The AC50 was 5.88 µM.

Q: Which AC50 does the source give for `O=C(Nc1nc(-c2ccccn2)cs1)c1ccc(Br)s1` here?
A: The AC50 was 0.737 µM.

Q: Which AC50 does the source give for `O=C(NNC(=S)Nc1ccc(Cl)c(Cl)c1)c1ccccn1` here?
A: The AC50 was 22 µM.

Q: For `Cc1ccc(-c2nc3c(Cl)cc(Cl)cc3c(=O)n2O)cc1`, which AC50 is on record?
A: The AC50 was 2.01 µM.

Test system: not listed separately
Assay: as above
Conditions: S. cerevisiae growth in glucose medium, OD600, 48 h; at 19.5 µM (top of the series)

Q: With `CCOC(=O)N1C(=O)C2(CCCCC2)N(c2ccc(C)cc2)C1=S` as the molecule, how does the activity change, negative = inhibition read?
A: Its activity change, negative = inhibition is 13.1% (inactive).

Q: For `COc1ccc(-c2nnc(NC(=O)c3ccc(S(=O)(=O)N4CCCc5ccccc54)cc3)o2)cc1`, which activity change, negative = inhibition is on record?
A: Its activity change, negative = inhibition is 19.9% (inactive).

Q: Which activity change, negative = inhibition does the source give for `O=C(Nc1nc(-c2ccccc2)cs1)c1ccc(Br)s1` here?
A: The activity change, negative = inhibition was 25.4% (inactive).

Q: With `NC(=O)c1cccc(C(=O)Nc2nc(-c3ccc4c(c3)CCCC4)cs2)c1` as the molecule, how does the activity change, negative = inhibition read?
A: The activity change, negative = inhibition was 9.9% (inactive).

Q: For `C/C(=N\NC(=O)c1cc2ccccc2cc1O)c1ccccn1`, which activity change, negative = inhibition is on record?
A: Its activity change, negative = inhibition is -15% (inactive).

Q: For `Cc1cc(C)n(-c2nc3ccccc3c(=O)n2OCC#N)n1`, which activity change, negative = inhibition is on record?
A: Its activity change, negative = inhibition is -16.8% (inactive).

Q: With `Cc1ccc(C(=O)Nc2nnc(-c3ccccc3)o2)cc1C` as the molecule, how does the activity change, negative = inhibition read?
A: Its activity change, negative = inhibition is 28.3% (inactive).

Q: For `O=C(Nc1nnc(-c2ccc3c(c2)CCCC3)o1)c1ccc(Cl)cc1Cl`, which activity change, negative = inhibition is on record?
A: The activity change, negative = inhibition was -3.17% (inactive).

Q: Which activity change, negative = inhibition does the source give for `O=C(Nc1nc(-c2ccc3c(c2)CCCC3)cs1)c1ccccc1` here?
A: Its activity change, negative = inhibition is 34% (inactive).

Q: For `O=C(Nc1nc(-c2ccccn2)cs1)c1ccccc1`, which activity change, negative = inhibition is on record?
A: The activity change, negative = inhibition was -9.7% (inactive).

Q: With `O=C(Nc1nnc(-c2ccc3c(c2)CCCC3)o1)c1ccccc1` as the molecule, how does the activity change, negative = inhibition read?
A: The activity change, negative = inhibition was -13.1% (inactive).

Q: For `Oc1c(C(c2ccc(Cl)cc2)N2CCCC2)ccc2cccnc12` (centres undefined), which activity change, negative = inhibition is on record?
A: The activity change, negative = inhibition was 7.98% (inactive).

Same assay, conditions: S. cerevisiae growth in glucose medium, OD600, 48 h; at 23.5 µM (top of the series)

Q: Which activity change, negative = inhibition does the source give for `Oc1c(CN2CCN(c3ccccc3)CC2)cc(Cl)c2cccnc12` here?
A: The activity change, negative = inhibition was 11.7% (inactive).
